Activity calls are given as the source filed them. No cut-off for these calls is given here.
Key:
SNU-475 [1] = test: Induction of autophagy in human SNU-475 cells assessed as increase expression of LC3 A/B II at 0.5 uM incubated for 24 hrs in presence of chloroquine under hypoxia condition by Western blot analysis; assay type: functional, cell-based
Hep 3B2 [2] = test: Cytotoxicity against human Hep3B cells assessed as reduction in cell viability incubated for 48 hrs by MTT assay; assay type: functional, cell-based
Mahlavu [3] = test: Induction of autophagy in human Mahlavu cells assessed as reduction in SQSTM1/p62 level by Western blot analysis; assay type: functional, cell-based; conditions: dose 0.1-0.5 µM
Mahlavu [4] = test: Induction of autophagy in human Mahlavu cells assessed as increase in lipidation of LC3I to LC3II at 0.5 uM incubated for 24 hrs by Western blot analysis; assay type: functional, cell-based
Hep 3B2 [5] = test: Cytotoxicity against human Hep3B cells assessed as reduction in cell viability at 0.5 uM incubated for 24 hrs in presence of 3-Methyladenine by MTT assay; assay type: functional, cell-based
Mahlavu [6] = test: Cytotoxicity against human Mahlavu cells assessed as reduction in cell viability at 0.5 to 5 uM incubated for 24 hrs by MTT assay; assay type: functional, cell-based; conditions: dose 0.5-5 µM
SNU-475 [7] = test: Induction of autophagy in human SNU-475 cells assessed as upregulation of LC3A/B II level by Western blot analysis; assay type: functional, cell-based; conditions: dose 0.1-0.5 µM
SNU-475 [8] = test: Induction of apoptosis in human SNU-475 cells assessed as cleaved Caspase 9 level at 0.5 uM incubated for 24 hrs by Western blotting analysis; assay type: functional, cell-based
[9] = Inhibition of PI3K/Akt/mTOR signaling pathway in human Mahlavu cells assessed as reduction in phosphorylation of Akt incubated for 1 hr under normoxia condition by Western blotting analysis; assay type: cell-based; conditions: dose 0.25-1 µM
Mahlavu [10] = test: Induction of apoptosis in human Mahlavu cells assessed as cleaved PARP level at 0.5 uM incubated for 24 hrs by Western blotting analysis; assay type: functional, cell-based
SNU-449 [11] = test: Induction of apoptosis in human SNU-449 cells assessed as late apoptotic cells at IC50 concentration incubated for 24 hrs in presence of Z-VAD-fmk by Annexin-V/7-AAD staining based muse cell analyzer method (reference value: 5.03 %); assay type: functional
[12] = Inhibition of PI3K/Akt/mTOR signaling pathway in human Hep3B cells assessed as reduction in phosphorylation of mTORC1/2 incubated for 1 hr under normoxia condition by Western blotting analysis; assay type: cell-based; conditions: dose 0.25-1 µM
SNU-475 [13] = test: Cytotoxicity against human SNU-475 cells assessed as reduction in cell viability incubated for 24 hrs under normoxia condition by MTT assay; assay type: functional, cell-based
Mahlavu [14] = test: Induction of apoptosis in human Mahlavu cells assessed as cleaved Caspase 7 level at 0.5 uM incubated for 24 hrs by Western blotting analysis; assay type: functional, cell-based
HepG2 = test: Cytotoxicity against human HepG2 cells assessed as reduction in cell viability at 0.5 to 5 uM incubated for 24 hrs by MTT assay; assay type: functional, cell-based; conditions: dose 0.5-5 µM
Hep 3B2 [15] = test: Anti-tumor activity against human Hep3B cells assessed as reduction of VEGF level incubated for 24 hrs under hypoxia condition by Western blot analysis; assay type: functional, cell-based; conditions: dose 0.01-0.1 µM
Hep 3B2 [16] = test: Cytotoxicity against human Hep3B cells assessed as reduction in cell viability at 0.5 uM incubated for 24 hrs in presence of 3-Methyladenine under hypoxia condition by MTT assay; assay type: functional, cell-based
Mahlavu [17] = test: Induction of autophagy in human Mahlavu cells assessed as reduction in cytotoxicity at 0.5 uM incubated for 24 hrs by MTT assay; assay type: functional, cell-based
Mahlavu [18] = test: Induction of apoptosis in human Mahlavu cells assessed as viable cells at 0.66 uM incubated for 24 hrs by Annexin-V/7-AAD staining based muse cell analyzer method (reference value: 90.52 %); assay type: functional; conditions: read-out: Activity
SNU-449 [19] = test: Induction of apoptosis in human SNU-449 cells assessed as late apoptotic cells at 1.5 uM incubated for 24 hrs by Annexin-V/7-AAD staining based muse cell analyzer method (reference value: 5.03 %); assay type: functional
Mahlavu [20] = test: Induction of apoptosis in human Mahlavu cells incubated for 24 hrs by Annexin-V/7-AAD staining based muse cell analyzer method; assay type: functional; conditions: dose 0.01-0.5 µM
[21] = Inhibition of PI3K/Akt/mTOR signaling pathway in human Hep3B cells assessed as reduction in phosphorylation of Akt incubated for 1 hr under normoxia condition by Western blotting analysis; assay type: cell-based; conditions: dose 0.25-1 µM
SNU-449 [22] = test: Induction of apoptosis in human SNU-449 cells assessed as necrotic cells at IC50 concentration incubated for 24 hrs in presence of Z-VAD-fmk by Annexin-V/7-AAD staining based muse cell analyzer method (reference value: 0.95 %); assay type: functional
[23] = Inhibition of PI3K/Akt/mTOR signaling pathway in human Mahlavu cells assessed as reduction in phosphorylation of mTORC1/2 incubated for 1 hr under normoxia condition by Western blotting analysis; assay type: cell-based; conditions: dose 0.25-1 µM
Hep 3B2 [24] = test: Cytotoxicity against human Hep3B cells assessed as reduction in cell viability incubated for 24 hrs under normoxia condition by MTT assay; assay type: functional, cell-based
Mahlavu [25] = test: Cytotoxicity against human Mahlavu cells assessed as reduction in cell viability at 0.5 uM incubated for 24 hrs in presence of chloroquine by MTT assay; assay type: functional, cell-based
[26] = Inhibition of PI3K/Akt/mTOR signaling pathway in human SNU-449 cells assessed as reduction in phosphorylation of mTORC1/2 incubated for 1 hr under normoxia condition by Western blotting analysis; assay type: cell-based; conditions: dose 0.25-1 µM
[27] = Inhibition of PI3K/Akt/mTOR signaling pathway in human HepG2 cells assessed as reduction in phosphorylation of mTORC1 substrate S6 incubated for 1 hr under normoxia condition by Western blotting analysis; assay type: cell-based; conditions: dose 0.25-1 µM
SNU-475 [28] = test: Cytotoxicity against human SNU-475 cells assessed as reduction in cell viability incubated for 48 hrs by MTT assay; assay type: functional, cell-based; conditions: SNU-475, 48 h
SNU-475 [29] = test: Induction of autophagy in human SNU-475 cells assessed as decreased expression of SQSTM1/p62 level incubated for 24 hrs under hypoxia condition by Western blot analysis; assay type: functional, cell-based; conditions: dose 0.1-0.5 µM
Mahlavu [30] = test: Cytotoxicity against human Mahlavu cells assessed as reduction in cell viability incubated for 24 hrs under hypoxia condition by MTT assay; assay type: functional, cell-based
Mahlavu [31] = test: Induction of apoptosis in human Mahlavu cells assessed as chromatin condensation under normoxia condition at 0.1 to 0.5 uM incubated for 24 hrs by DAPI staining based fluorescence microscope analysis; assay type: functional, cell-based; conditions: dose 0.1-0.5 µM
Hep 3B2 [32] = test: Cytotoxicity against human Hep3B cells assessed as reduction in cell viability at 0.5 to 5 uM incubated for 24 hrs by MTT assay; assay type: functional, cell-based; conditions: dose 0.5-5 µM
SNU-475 [33] = test: Induction of apoptosis in human SNU-475 cells assessed as cleaved Caspase 7 level at 0.5 uM incubated for 24 hrs by Western blotting analysis; assay type: functional, cell-based
[34] = Inhibition of PI3K/Akt/mTOR signaling pathway in human Mahlavu cells assessed as reduction in phosphorylation of Akt at 1 to 10 nM incubated for 1 hr under normoxia condition by Western blotting analysis; assay type: cell-based; conditions: dose 1-10 nM
Mahlavu [35] = test: Induction of cell cycle arrest in human Mahlavu cells assessed as decrease in accumulation of cells in G2/M phase incubated at 0.01 to 0.1 uM for 24 hrs by propidium iodide staining based muse cell analysis; assay type: functional; conditions: dose 0.01-0.1 µM
[36] = Inhibition of PI3K/Akt/mTOR signaling pathway in human SNU-475 cells assessed as reduction in phosphorylation of Akt incubated for 1 hr under normoxia condition by Western blotting analysis; assay type: cell-based; conditions: dose 0.25-1 µM

With `COc1ccc(-c2ccc3ncc4c(c3c2)n(-c2ccc(N3CCNCC3)c(C(F)(F)F)c2)c(=O)n4C)cn1` [BGT-226 FREE BASE] the Activity (SNU-475 [1]) was “Active”, the IC50 (Hep 3B2 [2]) was 1220 nM and the Activity (Mahlavu [3]) was “Dose-Dependent Effect”. The Activity (Mahlavu [4]) was “Active”, the Activity (Hep 3B2 [5]) was “Active” and the Activity (Mahlavu [6]) was “Active”. The Activity (SNU-475 [7]) was “Dose-Dependent Effect”, the Activity (SNU-475 [8]) was “Active” and the inhibition [9] was “Dose-Dependent Effect”. For the same compound, the Activity (Mahlavu [10]) was “Active”, the Activity (SNU-449 [11]) was 4.05% and the inhibition [12] was “Dose-Dependent Effect”. For the same compound, the Activity (SNU-475 [13]) was “Active”, the Activity (Mahlavu [14]) was “Active” and the Activity (HepG2) was “Active”. For the same compound, the Activity (Hep 3B2 [15]) was “Dose-Dependent Effect”, the Activity (Hep 3B2 [16]) was “Active” and the Activity (Mahlavu [17]) was “Active”. For the same compound, the viability at 0.66 µM (Mahlavu [18]) was 50.8%, the Activity (SNU-449 [19]) was 32.14% and the Activity (Mahlavu [20]) was “Dose-Dependent Effect”. The inhibition [21] was “Dose-Dependent Effect”, the Activity (SNU-449 [22]) was 0.45% and the inhibition [23] was “Dose-Dependent Effect”. For the same compound, the Activity (Hep 3B2 [24]) was “Active”, the Activity (Mahlavu [25]) was “Active” and the inhibition [26] was “Dose-Dependent Effect”. The inhibition [27] was “Dose-Dependent Effect”, the IC50 (SNU-475 [28]) was 1010 nM and the Activity (SNU-475 [29]) was “Dose-Dependent Effect”. The Activity (Mahlavu [30]) was “Active”, the Activity (Mahlavu [31]) was “Active” and the Activity (Hep 3B2 [32]) was “Active”. For the same compound, the Activity (SNU-475 [33]) was “Active”, the inhibition [34] was “Active” and the Activity (Mahlavu [35]) was “Active”. For the same compound, the inhibition [36] was “Dose-Dependent Effect”.

From ChEMBL document CHEMBL5647692, “The novel dual PI3K/mTOR inhibitor NVP-BGT226 displays cytotoxic activity in both normoxic and hypoxic hepatocarcinoma cells” (Oncotarget, 2015)
